# Results taken from US20230310464A1, “USE OF C[…] THE TREATMENT OF SEIZURES ASSOCIATED WITH RARE […] SYNDROMES RELATED TO BRAIN INJURY” (GW Research Limited, priority 2020, published 2023).
# Entries after “also recorded” stand apart in the source; their conditions may differ.
# Tested on: seizures associated with hypoxic ischaemic encephalopathy (HIE) or anoxia at birth
# Assay: Open label, expanded-access program: seizure frequency recorded by caregivers in a diary, relative to baseline
# Type: in vivo, human
# Set-up: reduction in tonic seizures over the treatment period / reduction in spasms over the treatment period / reduction in absence seizures over the treatment period / reduction in tonic-clonic seizures over the treatment period / reduction in myoclonic seizures over the treatment period: concentration or dose not given beside the values; Seizure frequency, Tonic / Seizure frequency, Spasm / Seizure frequency, Absence / Seizure frequency, Tonic-clonic / Seizure frequency, Focal with impairment / Seizure frequency, Atonic / Seizure frequency, Focal without impairment / Seizure frequency, Focal secondary generalisation / Seizure frequency, Myoclonic: unit not given here
# Description: Subjects were required to be on one or more AEDs at stable doses for a minimum of two weeks prior to baseline and to have stable vagus nerve stimulation (VNS) settings and ketogenic diet ratios for a minimum of four weeks prior to baseline.
# Dose was then increased weekly by 5 mg/kg/day to a goal of 20 to 25 mg/kg/day.
# Modifications were made to concomitant AEDs as per clinical indication.
# Seizure frequency, intensity, and duration were recorded by caregivers in a diary during a baseline period of at least 28 days. Changes in seizure frequency relative to baseline were calculated after at least 2 weeks and at defined timepoints of treatment.
# Patients may be defined as responders if they had more than 50% reduction in seizure frequency compared to baseline. The percent change in seizure frequency was calculated as follows: […]
# The percent change of seizure frequency may be calculated for any time interval where seizure number has been recorded. For the purpose of this example the percent change of seizure frequency for the end of the treatment period was calculated as follows: […]
# [1] = Patient 4, 48 weeks, CBD 15.0 mg/kg/day
# [2] = Patient 4, 60 weeks, CBD 20.0 mg/kg/day
# [3] = Patient 4, treated for 60 weeks, vs baseline
# [4] = Patient 5, 2 weeks, CBD 10.0 mg/kg/day
# [5] = Patient 5, 4 weeks, CBD 20.0 mg/kg/day
# [6] = Patient 5, 8 weeks, CBD 25.0 mg/kg/day
# [7] = Patient 5, 12 weeks, CBD 25.0 mg/kg/day
# [8] = Patient 5, 16 weeks, CBD 25.0 mg/kg/day
# [9] = Patient 6, 2 weeks, CBD 10.0 mg/kg/day
# [10] = Patient 6, treated for 2 weeks, vs baseline
# [11] = Patient 7, 2 weeks, CBD 5.0 mg/kg/day
# [12] = Patient 7, 4 weeks, CBD 10.0 mg/kg/day
# [13] = Patient 7, 8 weeks, CBD 20.0 mg/kg/day
# [14] = Patient 7, 12 weeks, CBD 25.0 mg/kg/day
# [15] = Patient 9, 2 weeks, CBD 15.0 mg/kg/day
# [16] = Patient 9, 4 weeks, CBD 20.0 mg/kg/day
# [17] = Patient 9, 8 weeks, CBD 25.0 mg/kg/day
# [18] = Patient 9, 12 weeks, CBD 25.0 mg/kg/day
# [19] = Patient 9, 16 weeks, CBD 25.0 mg/kg/day
# [20] = Patient 9, 24 weeks, CBD 25.0 mg/kg/day
# [21] = Patient 9, 36 weeks, CBD 25.0 mg/kg/day
# [22] = Patient 9, 48 weeks, CBD 25.0 mg/kg/day
# [23] = Patient 9, 60 weeks, CBD 25.0 mg/kg/day
# [24] = Patient 9, 72 weeks, CBD 25.0 mg/kg/day
# [25] = Patient 9, 84 weeks, CBD 25.0 mg/kg/day
# [26] = Patient 9, 108 weeks, CBD 25.0 mg/kg/day
# [27] = Patient 9, 132 weeks, CBD 25.0 mg/kg/day
smiles,measurement,setting,value
"C=C(C)[C@@H]1CCC(C)=C[C@H]1c1c(O)cc(CCCCC)cc1O [CBD, cannabidiol]","Seizure frequency, Tonic-clonic","Patient 4, 36 weeks, CBD 15.0 mg/kg/day",0
same,"Seizure frequency, Atonic",[1],0
same,"Seizure frequency, Tonic",[1],0
same,"Seizure frequency, Tonic-clonic",[1],3.3
same,"Seizure frequency, Atonic",[2],4.0
same,"Seizure frequency, Tonic",[2],0
same,"Seizure frequency, Tonic-clonic",[2],19.3
same,reduction in tonic seizures over the treatment period,[3],100%
same,reduction in tonic-clonic seizures over the treatment period,[3],87.1%
same,"Seizure frequency, Focal secondary generalisation",[4],114.0
same,"Seizure frequency, Focal without impairment",[4],0
same,"Seizure frequency, Focal secondary generalisation",[5],106.0
same,"Seizure frequency, Focal without impairment",[5],2.0
same,"Seizure frequency, Focal secondary generalisation",[6],112.8
same,"Seizure frequency, Focal without impairment",[6],1.9
same,"Seizure frequency, Focal secondary generalisation",[7],111.0
same,"Seizure frequency, Focal without impairment",[7],2.1
same,"Seizure frequency, Focal secondary generalisation",[8],125.5
same,"Seizure frequency, Focal without impairment",[8],3.9
same,reduction in seizures over the treatment period (in words),"Patient 5, treated for 16 weeks",did not experience a reduction in seizures
same,"Seizure frequency, Spasm",[9],100.0
same,"Seizure frequency, Tonic-clonic",[9],10.0
same,reduction in spasms over the treatment period,[10],53.9%
same,reduction in tonic-clonic seizures over the treatment period,[10],28.6%
same,"Seizure frequency, Focal with impairment",[11],70.0
same,"Seizure frequency, Myoclonic",[11],58.0
same,"Seizure frequency, Tonic-clonic",[11],74.0
same,"Seizure frequency, Focal with impairment",[12],78.0
same,"Seizure frequency, Myoclonic",[12],18.0
same,"Seizure frequency, Tonic-clonic",[12],102.0
same,"Seizure frequency, Focal with impairment",[13],65.3
same,"Seizure frequency, Myoclonic",[13],65.3
same,"Seizure frequency, Tonic-clonic",[13],86.7
same,"Seizure frequency, Focal with impairment",[14],71.0
same,"Seizure frequency, Myoclonic",[14],7.0
same,"Seizure frequency, Tonic-clonic",[14],65.0
same,reduction in myoclonic seizures over the treatment period,"Patient 7, treated for 12 weeks, vs baseline",30%
same,"Seizure frequency, Absence","Patient 8, 4 weeks, CBD 5.0 mg/kg/day",5376.0
same,"Seizure frequency, Absence","Patient 8, 8 weeks, CBD 5.0 mg/kg/day",4803.0
same,"Seizure frequency, Absence","Patient 8, 12 weeks, CBD 10.0 mg/kg/day",3514.0
same,"Seizure frequency, Absence","Patient 8, 24 weeks, CBD 15.0 mg/kg/day",4284.0
same,"Seizure frequency, Absence","Patient 8, 36 weeks, CBD 20.0 mg/kg/day",2989.3
same,"Seizure frequency, Absence","Patient 8, 48 weeks, CBD 25.0 mg/kg/day",3360.0
same,"Seizure frequency, Absence","Patient 8, 60 weeks, CBD 25.0 mg/kg/day",3136.0
same,"Seizure frequency, Absence","Patient 8, 72 weeks, CBD 25.0 mg/kg/day",2968.0
same,"Seizure frequency, Absence","Patient 8, 84 weeks, CBD 25.0 mg/kg/day",2718.0
same,reduction in absence seizures over the treatment period,"Patient 8, treated for 84 weeks, vs baseline",64%
same,"Seizure frequency, Myoclonic",[15],2.0
same,"Seizure frequency, Tonic",[15],118.0
same,"Seizure frequency, Myoclonic",[16],1.0
same,"Seizure frequency, Tonic",[16],88.0
same,"Seizure frequency, Myoclonic",[17],0
same,"Seizure frequency, Tonic",[17],48.0
same,"Seizure frequency, Myoclonic",[18],0
same,"Seizure frequency, Tonic",[18],92.0
same,"Seizure frequency, Myoclonic",[19],0
same,"Seizure frequency, Tonic",[19],90.0
same,"Seizure frequency, Myoclonic",[20],0
same,"Seizure frequency, Tonic",[20],142.4
same,"Seizure frequency, Myoclonic",[21],0
same,"Seizure frequency, Tonic",[21],53.0
same,"Seizure frequency, Myoclonic",[22],0
same,"Seizure frequency, Tonic",[22],98.0
same,"Seizure frequency, Myoclonic",[23],0
same,"Seizure frequency, Tonic",[23],95.6
same,"Seizure frequency, Myoclonic",[24],0
same,"Seizure frequency, Tonic",[24],96.0
same,"Seizure frequency, Myoclonic",[25],0
same,"Seizure frequency, Tonic",[25],99.2
same,"Seizure frequency, Myoclonic",[26],0
same,"Seizure frequency, Tonic",[26],69.0
same,"Seizure frequency, Myoclonic",[27],0
same,"Seizure frequency, Tonic",[27],76.8
same,"Seizure frequency, Absence","Patient 10, 4 weeks, CBD 5.0 mg/kg/day",10.0
same,"Seizure frequency, Absence","Patient 10, 12 weeks, CBD 10.0 mg/kg/day",610.0
same,"Seizure frequency, Absence","Patient 10, 24 weeks, CBD 15.0 mg/kg/day",304.0
same,"Seizure frequency, Absence","Patient 10, 36 weeks, CBD 20.0 mg/kg/day",2184.6
same,"Seizure frequency, Absence","Patient 10, 48 weeks, CBD 25.0 mg/kg/day",1957.3
same,"Seizure frequency, Absence","Patient 10, 60 weeks, CBD 25.0 mg/kg/day",1520.3
same,"Seizure frequency, Absence","Patient 10, 72 weeks, CBD 25.0 mg/kg/day",1655.6
same,"Seizure frequency, Absence","Patient 10, 84 weeks, CBD 25.0 mg/kg/day",1626.6
same,"Seizure frequency, Absence","Patient 10, 96 weeks, CBD 25.0 mg/kg/day",1678.3
same,"Seizure frequency, Absence","Patient 10, 120 weeks, CBD 25.0 mg/kg/day",1644.5
same,"Seizure frequency, Absence","Patient 10, 132 weeks, CBD 25.0 mg/kg/day",1370.8
same,reduction in absence seizures over the treatment period,"Patient 10, treated for 132 weeks, vs baseline",54.3%
same,time of CBD treatment after which patient became seizure free of tonic seizures,patient #2,36 weeks
same,time of CBD treatment after which patient became seizure free of tonic seizures,patient #4,12 weeks
same,seizure freedom in patients with tonic seizures (in words),"patients 2 and 4, between 12 and 36 weeks of treatment",completely seizure free
same,effect on seizures / seizure frequency (in words),"tonic, tonic-clonic, atonic, myoclonic, absence, focal seizures with impairment and spasms, HIE or anoxia at birth",effective in reducing the frequency; also recorded: significantly reduce the number of seizures; also recorded: significant reduction
